Where two headings read alike, the source gives them in different places.
What was measured:
Mouse Liver [1] = conditions: ref ToxRefDB, cited from earlier work
Mouse Liver [2] = conditions: ref ToxRefDB, cited from earlier work; remark: listed apart in the source
Mouse Liver [3] = conditions: ref ToxRefDB, cited from earlier work; remark: listed apart in the source
Rat Liver [4] = conditions: ref ToxRefDB, cited from earlier work
Rat Liver [5] = conditions: ref ToxRefDB, cited from earlier work; remark: listed apart in the source
Rat Liver [6] = conditions: ref ToxRefDB, cited from earlier work; remark: listed apart in the source
PXR (NR1I2) = biological target: T1, PXR (NR1I2) (Homo sapiens, UniProt O75469); assay: ATG_PXRE_CIS: Factorial reporter gene assay (HepG2); format: cell-based; design: endogenous in cells; host or cells: HepG2; conditions: HepG2
T1 sequence (O75469 1-434): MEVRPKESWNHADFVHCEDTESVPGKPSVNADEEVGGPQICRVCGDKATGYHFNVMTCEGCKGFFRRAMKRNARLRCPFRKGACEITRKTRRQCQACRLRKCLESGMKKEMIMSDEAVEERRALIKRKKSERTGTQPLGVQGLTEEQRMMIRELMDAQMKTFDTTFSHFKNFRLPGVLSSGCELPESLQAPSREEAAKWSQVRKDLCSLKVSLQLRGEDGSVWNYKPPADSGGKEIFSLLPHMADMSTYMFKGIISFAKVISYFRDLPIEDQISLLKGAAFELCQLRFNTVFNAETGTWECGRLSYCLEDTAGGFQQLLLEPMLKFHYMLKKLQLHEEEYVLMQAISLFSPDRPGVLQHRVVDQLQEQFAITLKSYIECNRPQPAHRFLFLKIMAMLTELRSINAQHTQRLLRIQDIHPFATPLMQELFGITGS
Summary of the method: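 CIS (PXRE): HepG2 transfected with 48 TF-binding-site MRTU library. TRANS (ERRg, FXR, PPARg): one-hybrid format, extra 25 nuclear-receptor MRTUs. 7 concs, top = MTC, 3-fold serial dilution.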

CYP2B6 = assay: CLZD_CYP2B6: Change in expression of CYP2B6 (primary human hepatocytes); format: cell-based; conditions: 24 hr
Description: (§1) This is a collection of multiplexed gene expression assays focused on Phase I and II xenobiotic metabolizing enzymes and transporters. Human primary cell cultures were treated with chemicals at 5 concentrations (0.004-40 [drawing 42] M) for 6, 24 and 48 hr. Concentration- and time-response profiles of chemicals were measured by the expression of key nuclear receptor target genes, activities of CYP1A enzymes (EROD), and cell morphology. Fourteen gene targets were monitored by quantitative nuclease protection assay including: six representative cytochrome P-450 genes, four hepatic transporters, three Phase II conjugating enzymes, and one endogenous metabolism gene involved in cholesterol synthesis. The target genes associated with nuclear receptor pathways are as follows: [drawing 43] and [drawing 44] with [drawing 45]; [drawing 46] , [drawing 47] , [drawing 48] , [drawing 49] , [drawing 50] and [drawing 51] with [drawing 52]; [drawing 53] , [drawing 54] , [drawing 55] and [drawing 56] with [drawing 57]; [drawing 58] with [drawing 59]; and [drawing 60] with [drawing 61] . Assays were run in primary human hepatocyte cultures by CellzDirect Invitrogen Inc. (Durham, NC), in collaboration with EPA.
(§2) Multiplexed Gene Expression in Human Primary Hepatocytes: This is a collection of multiplexed gene expression assays focused on Phase I and II metabolic enzymes and transporters. […] Fourteen gene targets were monitored by quantitative nuclease protection assay: six representative cytochrome P450 genes, four hepatic transporters, three Phase II conjugating enzymes, and one endogenous metabolism gene involved in cholesterol synthesis. Cells were exposed at 5 concentrations (0.004-40 µM) for 6, 24 or 48 hr. Gene targets are sentinels for five nuclear receptor signaling pathways: AhR, CAR, PXR, FXR, and PPARα. All gene are associated with nuclear receptor pathways: CYP1A1 and CYP1A2 with AHR; ABCB1, ABCG2, CYP2B6, CYP2C9, CYP2C19 and UGT1A1 with CAR; CYP3A4, GSTA2, SLCO1B1 and SULT2A1 with PXR; HMGCS2 with PPARA; and ABCB11 with FXR. […] Detailed description of the methods, data and analysis methods for this dataset will be presented in a separate publication.

CYP3A4 = assay: CLZD_CYP3A4: Change in expression of CYP3A4 (primary human hepatocytes); format: cell-based; conditions: 24 hr
Description: as §1, §2

[7] = mouse chronic study, liver, preneoplastic lesion, coded 6 / Inf, code not explained in the table
[8] = mouse chronic study, liver, neoplastic lesion, coded 6 / Inf, code not explained in the table
[9] = mouse chronic study, liver, any lesion, coded 6 / Inf, code not explained in the table
[10] = rat chronic study, liver, neoplastic lesion, coded 6 / 0, code not explained in the table
[11] = rat chronic study, liver, any lesion, coded 6 / 0, code not explained in the table
[12] = rat chronic study, liver, preneoplastic lesion, coded 6 / 0, code not explained in the table
[13] = mouse chronic study, liver, coded 6 / Inf, code not explained in table
[14] = rat chronic study, liver, coded 6 / 0, code not explained in table

Row | SMILES | CHR_Mouse_Liver_2_PreneoplasticLesion (Mouse Liver [1]; [7]) | CHR_Mouse_Liver_3_NeoplasticLesion (Mouse Liver [2]; [8]) | CHR_Mouse_Liver_1_AnyLesion (Mouse Liver [3]; [9]) | CHR_Mouse_Liver_2_PreneoplasticLesion (Mouse Liver [1]; [13]) | CHR_Mouse_Liver_3_NeoplasticLesion (Mouse Liver [2]; [13]) | CHR_Mouse_Liver_1_AnyLesion (Mouse Liver [3]; [13]) | CHR_Rat_Liver_3_NeoplasticLesion (Rat Liver [4]; [14]) | CHR_Rat_Liver_1_AnyLesion (Rat Liver [5]; [14]) | CHR_Rat_Liver_2_PreneoplasticLesion (Rat Liver [6]; [14]) | other results
1 | CCCOC(=O)c1ccc(C(=O)OCCC)nc1 [Dataset S3 row 4] | 6 | 6 | 6 | – | – | – | – | – | – | CHR_Rat_Liver_3_NeoplasticLesion (Rat Liver [4]; [10]): 6; CHR_Rat_Liver_1_AnyLesion (Rat Liver [5]; [11]): 6; CHR_Rat_Liver_2_PreneoplasticLesion (Rat Liver [6]; [12]): 6
2 | CCCCNC(=O)OCC#CI [Dataset S3 row 6] | 6 | 6 | 6 | – | – | – | – | – | – | CHR_Rat_Liver_3_NeoplasticLesion (Rat Liver [4]; [10]): 0; CHR_Rat_Liver_1_AnyLesion (Rat Liver [5]; [11]): 6; CHR_Rat_Liver_2_PreneoplasticLesion (Rat Liver [6]; [12]): 0
3 | CCCCNC(=O)OCC#CI [Dataset S3 row 7] | 6 | 6 | 6 | – | – | – | – | – | – | CHR_Rat_Liver_3_NeoplasticLesion (Rat Liver [4]; [10]): 0; CHR_Rat_Liver_1_AnyLesion (Rat Liver [5]; [11]): 6; CHR_Rat_Liver_2_PreneoplasticLesion (Rat Liver [6]; [12]): 0
4 | Cc1ccc(/N=C/N(C)/C=N/c2ccc(C)cc2C)c(C)c1 [Dataset S3 row 18] | 6 | 6 | 6 | – | – | – | – | – | – | CHR_Rat_Liver_3_NeoplasticLesion (Rat Liver [4]; [10]): 0; CHR_Rat_Liver_1_AnyLesion (Rat Liver [5]; [11]): 0; CHR_Rat_Liver_2_PreneoplasticLesion (Rat Liver [6]; [12]): 0
5 | CCCCN(CC)c1c([N+](=O)[O-])cc(C(F)(F)F)cc1[N+](=O)[O-] [Dataset S3 row 26] | 6 | 6 | 6 | – | – | – | – | – | – | –
6 | CCCCNC(=O)n1c(NC(=O)OC)nc2ccccc21 [Dataset S3 row 27] | 6 | 6 | 6 | – | – | – | – | – | – | –
7 | CN1COCN(Cc2cnc(Cl)s2)/C1=N\[N+](=O)[O-] [chemical 296] | – | – | – | 6 | 6 | 6 | 0 | 6 | 0 | –
8 | CS/C(C)=N/OC(=O)N(C)SN(C)C(=O)O/N=C(\C)SC [chemical 300] | – | – | – | 6 | 6 | 6 | 0 | 0 | 0 | –
9 | COC(=O)NC(=S)Nc1ccccc1NC(=S)NC(=O)OC [chemical 301] | – | – | – | 6 | 6 | 6 | – | – | – | –
10 | CC(C)(C)C(=O)C(Oc1ccc(Cl)cc1)n1cncn1 (stereo not drawn) [chemical 304] | – | – | – | 6 | 6 | 6 | 0 | 6 | 0 | –
11 | CC(C)(C)C(O)C(Oc1ccc(Cl)cc1)n1cncn1 (stereo not drawn) [chemical 305] | – | – | – | 6 | 6 | 6 | 0 | 0 | 0 | –
12 | COC(=O)c1cccc(C)c1S(=O)(=O)NC(=O)Nc1nc(OCC(F)(F)F)nc(N(C)C)n1 [chemical 317] | – | – | – | 6 | 6 | 6 | 0 | 0 | 0 | –
13 | C=CC1(C)OC(=O)N(c2cc(Cl)cc(Cl)c2)C1=O (stereo not drawn) [chemical 319] | – | – | – | 6 | 6 | 6 | 6 | 6 | 6 | –
14 | COC(=O)c1ccccc1S(=O)(=O)NC(=O)Nc1nc(OC(F)F)cc(OC(F)F)n1 [r250] | – | – | – | – | – | – | – | – | – | CHR_Mouse_Liver_2_PreneoplasticLesion (Mouse Liver [1]; mouse, chronic study): 6; CHR_Mouse_Liver_3_NeoplasticLesion (Mouse Liver [2]; mouse, chronic study): 6; CHR_Mouse_Liver_1_AnyLesion (Mouse Liver [3]; mouse, chronic study): 6; CHR_Rat_Liver_3_NeoplasticLesion (Rat Liver [4]; rat, chronic study): 0; ATG_PXRE_CIS (PXR (NR1I2)): 4.469; CHR_Rat_Liver_1_AnyLesion (Rat Liver [5]; rat, chronic study): 0; CHR_Rat_Liver_2_PreneoplasticLesion (Rat Liver [6]; rat, chronic study): 0; CLZD_CYP2B6_24 (CYP2B6): 5.187
15 | CNC(=O)Oc1ccccc1OC(C)C [r263] | – | – | – | – | – | – | – | – | – | CHR_Mouse_Liver_2_PreneoplasticLesion (Mouse Liver [1]; mouse, chronic study): 6; CHR_Mouse_Liver_3_NeoplasticLesion (Mouse Liver [2]; mouse, chronic study): 6; CHR_Mouse_Liver_1_AnyLesion (Mouse Liver [3]; mouse, chronic study): 6; CHR_Rat_Liver_3_NeoplasticLesion (Rat Liver [4]; rat, chronic study): 0; CLZD_CYP3A4_24 (CYP3A4): 5.055; CHR_Rat_Liver_1_AnyLesion (Rat Liver [5]; rat, chronic study): 0; CHR_Rat_Liver_2_PreneoplasticLesion (Rat Liver [6]; rat, chronic study): 0; CLZD_CYP2B6_24 (CYP2B6): 5.434
16 | CC1=NNC(=O)N(/N=C/c2cccnc2)C1 [r269] | – | – | – | – | – | – | – | – | – | CHR_Mouse_Liver_2_PreneoplasticLesion (Mouse Liver [1]; chronic study, mouse liver): 6; CHR_Mouse_Liver_3_NeoplasticLesion (Mouse Liver [2]; chronic study, mouse liver): 6; CHR_Mouse_Liver_1_AnyLesion (Mouse Liver [3]; chronic study, mouse liver): 6; CHR_Rat_Liver_3_NeoplasticLesion (Rat Liver [4]; chronic study, rat liver): 6; CHR_Rat_Liver_1_AnyLesion (Rat Liver [5]; chronic study, rat liver): 6; CHR_Rat_Liver_2_PreneoplasticLesion (Rat Liver [6]; chronic study, rat liver): 6
17 | Clc1cccc(C(Cl)(Cl)Cl)n1 [row 221] | – | – | – | – | – | – | – | – | – | CHR_Mouse_Liver_2_PreneoplasticLesion (Mouse Liver [1]; chronic mouse study, liver): 6; CHR_Mouse_Liver_3_NeoplasticLesion (Mouse Liver [2]; chronic mouse study, liver): 6; CHR_Mouse_Liver_1_AnyLesion (Mouse Liver [3]; chronic mouse study, liver): 6; CHR_Rat_Liver_3_NeoplasticLesion (Rat Liver [4]; chronic rat study, liver): 0; ATG_PXRE_CIS (PXR (NR1I2)): 4.292; CHR_Rat_Liver_1_AnyLesion (Rat Liver [5]; chronic rat study, liver): 6; CHR_Rat_Liver_2_PreneoplasticLesion (Rat Liver [6]; chronic rat study, liver): 0; CLZD_CYP2B6_24 (CYP2B6): 5.088
